Assay results from ChEMBL document CHEMBL4477239 (Bioorg Med Chem, 2016).

Experiments:
[1] = Intrinsic clearance in rat liver microsomes assessed per mg of protein at 1 uM preincubated for 5 mins followed by NADPH addition measured after 5 to 30 mins by LC-MS/MS analysis; type: ADME, Microsome; details: read-out: CLH
NCI-H1993 = assay: Cytotoxicity against human NCI-H1993 cells assessed as growth inhibition after 72 hrs by CCK-8 assay; details: NCI-H1993, 72 h
[2] = Intrinsic clearance in human liver microsomes assessed per mg of protein at 1 uM preincubated for 5 mins followed by NADPH addition measured after 5 to 30 mins by LC-MS/MS analysis; type: ADME, Microsome; details: read-out: CLH
Cytochrome P450 2C9 = Cytochrome P450 2C9 (Homo sapiens, UniProt P11712); assay: Inhibition of CYP2C9 in human liver microsomes at 10 uM using sulfaphenazole as […] preincubated for 5 mins followed by NADPH addition measured after 20 mins by LC-MS/MS analysis; type: ADME
Cytochrome P450 2C9, sequence (P11712 whole entry): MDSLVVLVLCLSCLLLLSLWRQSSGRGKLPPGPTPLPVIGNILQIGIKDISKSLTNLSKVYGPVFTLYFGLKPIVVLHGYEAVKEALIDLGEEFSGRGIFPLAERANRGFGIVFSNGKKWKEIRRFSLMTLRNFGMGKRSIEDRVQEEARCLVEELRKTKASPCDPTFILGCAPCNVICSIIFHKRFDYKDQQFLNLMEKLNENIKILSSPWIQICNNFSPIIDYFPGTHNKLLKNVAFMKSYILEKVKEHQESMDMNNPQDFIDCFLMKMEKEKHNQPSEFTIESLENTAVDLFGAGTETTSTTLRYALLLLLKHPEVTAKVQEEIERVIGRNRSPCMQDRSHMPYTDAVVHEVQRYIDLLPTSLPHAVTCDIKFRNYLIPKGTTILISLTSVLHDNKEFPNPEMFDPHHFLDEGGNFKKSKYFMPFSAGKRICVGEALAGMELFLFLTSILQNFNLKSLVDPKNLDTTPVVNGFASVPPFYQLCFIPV

Cytochrome P450 3A4 [3] = target: T1, Cytochrome P450 3A4 (Homo sapiens, UniProt P08684); assay: Time-dependent inhibition of CYP3A4 in human liver microsomes at 10 uM using troleandomycin as […] preincubated with compound followed by NADPH addition by LC-MS/MS analysis; type: ADME
T1 sequence (P08684 whole entry): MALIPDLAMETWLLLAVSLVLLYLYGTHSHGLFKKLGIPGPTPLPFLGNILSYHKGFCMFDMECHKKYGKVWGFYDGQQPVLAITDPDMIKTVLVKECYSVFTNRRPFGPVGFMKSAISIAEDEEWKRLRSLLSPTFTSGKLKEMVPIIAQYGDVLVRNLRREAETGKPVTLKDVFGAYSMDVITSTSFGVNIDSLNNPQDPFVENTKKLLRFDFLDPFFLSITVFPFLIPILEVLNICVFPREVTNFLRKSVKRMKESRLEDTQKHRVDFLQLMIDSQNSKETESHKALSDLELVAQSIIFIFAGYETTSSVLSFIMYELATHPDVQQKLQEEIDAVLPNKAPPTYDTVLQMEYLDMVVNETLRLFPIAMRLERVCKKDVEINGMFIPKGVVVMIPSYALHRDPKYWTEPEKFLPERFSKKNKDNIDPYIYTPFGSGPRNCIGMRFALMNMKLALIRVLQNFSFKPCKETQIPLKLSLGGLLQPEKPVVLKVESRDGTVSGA

Cytochrome P450 2D6 = Cytochrome P450 2D6 (Homo sapiens, UniProt P10635); assay: Time-dependent inhibition of CYP2D6 in human liver microsomes at 10 uM using paroxetine as […] preincubated with compound followed by NADPH addition by LC-MS/MS analysis; type: ADME
Cytochrome P450 2D6, sequence (P10635 whole entry): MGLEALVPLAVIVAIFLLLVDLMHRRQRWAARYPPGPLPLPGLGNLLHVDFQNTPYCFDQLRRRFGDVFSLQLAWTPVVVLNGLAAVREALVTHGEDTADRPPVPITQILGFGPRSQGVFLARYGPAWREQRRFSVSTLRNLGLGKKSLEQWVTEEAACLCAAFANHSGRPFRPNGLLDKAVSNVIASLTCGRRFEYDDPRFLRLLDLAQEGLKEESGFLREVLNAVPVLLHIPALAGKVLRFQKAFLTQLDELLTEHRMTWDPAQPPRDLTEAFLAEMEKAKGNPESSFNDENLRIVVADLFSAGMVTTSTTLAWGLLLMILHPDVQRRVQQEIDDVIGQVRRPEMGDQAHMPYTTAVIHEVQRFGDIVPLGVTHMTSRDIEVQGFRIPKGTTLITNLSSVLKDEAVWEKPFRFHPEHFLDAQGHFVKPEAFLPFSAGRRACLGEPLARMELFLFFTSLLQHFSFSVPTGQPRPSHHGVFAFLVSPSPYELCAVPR

Cytochrome P450 1A2 = target: T2, Cytochrome P450 1A2 (Homo sapiens, UniProt P05177); assay: Time-dependent inhibition of CYP1A2 in human liver microsomes at 10 uM using furafylline as […] preincubated with compound followed by NADPH addition by LC-MS/MS analysis; type: ADME
T2 sequence (P05177 whole entry): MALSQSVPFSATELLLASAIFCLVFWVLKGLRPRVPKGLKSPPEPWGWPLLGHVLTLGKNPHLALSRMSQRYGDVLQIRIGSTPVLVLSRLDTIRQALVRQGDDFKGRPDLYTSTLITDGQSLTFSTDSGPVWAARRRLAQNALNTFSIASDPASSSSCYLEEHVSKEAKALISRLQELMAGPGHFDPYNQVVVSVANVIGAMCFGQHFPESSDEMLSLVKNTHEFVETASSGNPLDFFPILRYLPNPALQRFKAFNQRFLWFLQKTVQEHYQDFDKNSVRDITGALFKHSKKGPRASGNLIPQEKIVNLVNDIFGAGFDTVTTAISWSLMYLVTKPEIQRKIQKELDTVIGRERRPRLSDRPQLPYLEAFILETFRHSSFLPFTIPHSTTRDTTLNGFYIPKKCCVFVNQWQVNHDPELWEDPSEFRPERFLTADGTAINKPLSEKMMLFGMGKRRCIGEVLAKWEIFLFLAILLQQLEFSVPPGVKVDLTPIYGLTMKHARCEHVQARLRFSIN

[4] = target: Hepatocyte growth factor receptor (Homo sapiens, UniProt P08581)
Hepatocyte growth factor receptor, sequence (P08581 whole entry): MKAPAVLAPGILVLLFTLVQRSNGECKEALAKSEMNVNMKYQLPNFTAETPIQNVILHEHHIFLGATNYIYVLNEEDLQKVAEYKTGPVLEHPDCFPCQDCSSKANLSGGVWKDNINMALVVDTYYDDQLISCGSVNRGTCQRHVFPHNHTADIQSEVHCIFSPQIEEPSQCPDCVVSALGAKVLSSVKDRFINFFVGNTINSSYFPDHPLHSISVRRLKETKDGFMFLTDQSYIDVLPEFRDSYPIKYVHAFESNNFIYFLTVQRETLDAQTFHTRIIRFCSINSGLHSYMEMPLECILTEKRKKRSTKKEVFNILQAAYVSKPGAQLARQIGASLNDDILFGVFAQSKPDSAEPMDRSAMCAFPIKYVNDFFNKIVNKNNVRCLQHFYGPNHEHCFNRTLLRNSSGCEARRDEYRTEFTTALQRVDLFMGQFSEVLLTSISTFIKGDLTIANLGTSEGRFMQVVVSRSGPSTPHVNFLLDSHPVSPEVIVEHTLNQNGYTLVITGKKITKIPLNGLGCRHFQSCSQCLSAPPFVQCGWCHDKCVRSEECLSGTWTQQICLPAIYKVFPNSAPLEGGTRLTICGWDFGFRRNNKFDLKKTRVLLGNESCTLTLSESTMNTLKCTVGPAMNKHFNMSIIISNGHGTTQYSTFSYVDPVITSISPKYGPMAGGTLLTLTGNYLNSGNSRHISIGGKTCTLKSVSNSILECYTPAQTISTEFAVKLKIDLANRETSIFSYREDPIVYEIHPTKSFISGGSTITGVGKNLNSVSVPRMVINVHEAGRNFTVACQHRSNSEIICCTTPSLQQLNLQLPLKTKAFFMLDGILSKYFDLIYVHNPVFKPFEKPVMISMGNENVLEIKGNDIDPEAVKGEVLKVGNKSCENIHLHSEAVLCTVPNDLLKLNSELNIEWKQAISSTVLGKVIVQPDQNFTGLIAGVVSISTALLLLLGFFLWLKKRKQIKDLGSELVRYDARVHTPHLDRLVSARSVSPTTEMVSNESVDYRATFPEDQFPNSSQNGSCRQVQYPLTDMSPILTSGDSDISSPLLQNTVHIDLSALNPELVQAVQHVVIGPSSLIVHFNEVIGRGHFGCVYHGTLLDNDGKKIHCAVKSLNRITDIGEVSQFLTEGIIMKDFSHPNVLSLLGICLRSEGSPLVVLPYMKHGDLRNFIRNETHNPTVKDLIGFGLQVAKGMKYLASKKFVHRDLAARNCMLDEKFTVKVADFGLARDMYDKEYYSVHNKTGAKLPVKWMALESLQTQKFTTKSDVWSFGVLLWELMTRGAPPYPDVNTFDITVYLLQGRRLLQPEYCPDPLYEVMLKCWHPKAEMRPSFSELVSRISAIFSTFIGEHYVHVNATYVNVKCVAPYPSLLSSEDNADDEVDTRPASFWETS
Description: Inhibition of c-Met kinase (unknown origin) assessed as decrease in phosphorylation of TK substrate-biotin peptide preincubated for 5 to 10 mins followed by ATP addition measured after 30 mins by HTRF assay

Cytochrome P450 3A4 [5] = target: T1, Cytochrome P450 3A4; assay: Inhibition of CYP3A4 in human liver microsomes at 10 uM using ketoconazole as […] preincubated for 5 mins followed by NADPH addition measured after 20 mins by LC-MS/MS analysis; type: ADME
[6] = Apparent permeability from basolateral to apical side in Caco2 cells at 1 to 10 uM incubated for 90 mins by LC-MS/MS analysis; type: ADME, cell-based; details: human, Caco-2
[7] = Efflux ratio of permeability from basolateral to apical side over apical to basolateral side in Caco2 cells at 1 to 10 uM incubated for 90 mins by LC-MS/MS analysis; type: ADME, cell-based; details: human, Caco-2
in vitro = details: human, Caco-2
Description: Apparent permeability from apical to basolateral side in Caco2 cells at 1 to 10 uM incubated for 90 mins by LC-MS/MS analysis

Cytochrome P450 2C19 = Cytochrome P450 2C19 (Homo sapiens, UniProt P33261); assay: Inhibition of CYP2C19 in human liver microsomes at 10 uM using tranylcypromine as […] preincubated for 5 mins followed by NADPH addition measured after 20 mins by LC-MS/MS analysis; type: ADME
Cytochrome P450 2C19, sequence (P33261 whole entry): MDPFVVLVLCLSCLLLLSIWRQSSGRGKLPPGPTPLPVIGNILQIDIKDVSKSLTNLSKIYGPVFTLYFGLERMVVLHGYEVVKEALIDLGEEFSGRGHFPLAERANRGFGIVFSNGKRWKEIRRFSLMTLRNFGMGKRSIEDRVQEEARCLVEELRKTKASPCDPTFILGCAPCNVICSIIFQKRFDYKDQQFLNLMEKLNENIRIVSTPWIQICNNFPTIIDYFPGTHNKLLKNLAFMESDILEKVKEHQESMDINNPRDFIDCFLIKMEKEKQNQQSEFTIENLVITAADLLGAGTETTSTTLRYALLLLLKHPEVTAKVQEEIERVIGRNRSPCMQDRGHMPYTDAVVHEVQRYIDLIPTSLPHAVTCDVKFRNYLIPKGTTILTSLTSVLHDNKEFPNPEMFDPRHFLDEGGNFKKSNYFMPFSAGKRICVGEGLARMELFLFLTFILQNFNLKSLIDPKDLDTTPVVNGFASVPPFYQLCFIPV

Row | Structure (SMILES) | microsomal CLint at 1 µM [1] [µL/min/mg] | IC50 (NCI-H1993) [nM] | microsomal CLint at 1 µM [2] [µL/min/mg] | inhibition (INH) (Cytochrome P450 2C9) | inhibition (INH) (Cytochrome P450 3A4 [3]) | inhibition (INH) (Cytochrome P450 2D6) | inhibition (INH) (Cytochrome P450 1A2) | IC50 [4] [nM] | inhibition (INH) (Cytochrome P450 3A4 [5]) | Papp B→A at 1.5 h [6] [×10⁻⁶ cm/s] | efflux ratio at 1.5 h [7] | Papp A→B at 1.5 h, 10 µM (in vitro) [×10⁻⁶ cm/s] | inhibition (INH) (Cytochrome P450 2C19)
1 | COC(=O)c1ccc(-c2cnc3ncn(C(C)c4c(F)cc5ncccc5c4F)c3n2)cc1F (stereo unspecified) | 179 | 29.4 | 290 | Active | Not Active | Not Active | Not Active | 4.9 |  |  |  |  | 
2 | C[C@@H](c1cc2cccnc2cc1F)n1cnc2ncc(-c3ccc(C(N)=O)c(F)c3)nc21 | 131 | 11.8 | 23 | Active | Not Active |  |  | 1.32 | Active | 47.9 | 1.1 | 43.7 | 
3 | CC(c1c(F)cc2ncccc2c1F)n1cnc2ncc(-c3ccncc3)nc21 (stereo unspecified) | 77 | 162 | 14 | Active | Not Active | Not Active | Not Active | 1.6 | Active |  |  |  | Active
4 | COC(=O)c1ccc(-c2cnc3ncn(C(C)c4cc5cccnc5cc4F)c3n2)cc1F (stereo unspecified) | 125 | 60.2 | 73 | Active | Not Active | Not Active | Not Active | 2.9 |  |  |  |  | 
5 | CC(c1cc2cccnc2cc1F)n1cnc2ncc(-c3ccc(C(N)=O)c(F)c3)nc21 (stereo unspecified) | 85 | 19.5 | 14 | Active | Not Active | Not Active | Not Active | 1.7 |  | 81.4 | 0.99 | 82.3 | 
6 | CC(=O)O[C@H]1C(=O)[C@@]2(C)[C@H]([C@H](OC(=O)c3ccccc3)[C@]3(O)C[C@H](OC(=O)[C@H](O)[C@@H](NC(=O)c4ccccc4)c4ccccc4)C(C)=C1C3(C)C)[C@]1(OC(C)=O)CO[C@@H]1C[C@@H]2O [PACLITAXEL] |  |  |  |  |  |  |  |  |  | 3.3 | 2.27 | 1.46 | 
7 | CC(C)NCC(O)COc1cccc2ccccc12 (stereo unspecified) [PROPRANOLOL] |  |  |  |  |  |  |  |  |  |  |  | 21.5 | 
